# Results from US4711958A, “Morpholine containing amino acid derivatives” (priority 1986, dated 1987).
# pIC50: −log10 of the molar value.
# Tests used:
# renin [1] = molecular target: T1, renin (Homo sapiens, UniProt P00797); assay: Inhibitory effect on human renin-sheep renin substrate reaction system in vitro; type: biochemical; conditions: pH 7.4, 37° C., 15 minutes, read-out: IC50 (molar concentration producing a 50% inhibition)
# T1 sequence (P00797 67-406): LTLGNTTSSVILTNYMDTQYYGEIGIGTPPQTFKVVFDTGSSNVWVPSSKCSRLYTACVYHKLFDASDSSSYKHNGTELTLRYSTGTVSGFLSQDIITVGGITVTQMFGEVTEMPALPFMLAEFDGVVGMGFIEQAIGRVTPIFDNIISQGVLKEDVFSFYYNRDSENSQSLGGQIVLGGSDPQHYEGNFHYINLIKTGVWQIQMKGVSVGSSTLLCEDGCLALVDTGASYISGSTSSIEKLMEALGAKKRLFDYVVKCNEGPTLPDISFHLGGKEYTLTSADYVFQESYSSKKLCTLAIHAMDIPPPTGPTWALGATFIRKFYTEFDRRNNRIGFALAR
# Method: Inhibitory effect on human renin-sheep renin substrate reaction system in vitro
# The mixture was incubated for 15 minutes on a water bath at 37° C., and the reaction mixture was allowed to stand for 5 minutes on a water bath at 100° C. to stop the reaction. After cooling, 200 μl of the solution was taken up and the amount of angiotensin I produced by the addition of renin was determined by radioimmunoassay using renin riabead kit (DAINABOT).
# The inhibitory effect was calculated by the following equation.
# As a control, the same procedure as above was carried out by using 50 μl of dimethyl sulfoxide alone in place of the 50 μl of dimethyl sulfoxide solution containing an amino acid compound of the present invention. [formula]
# renin [2] = molecular target: T1, renin; assay: Renin inhibitory effect in a human high renin plasma; type: biochemical; set-up: 500 μl of human high renin plasma; from tissue; host or cells: human high renin plasma; conditions: pH 7.0, 37° C., 60 minutes, read-out: IC50 (molar concentration producing a 50% inhibition)
# Method: Renin inhibitory effect in a human high renin plasma
# A mixture of 350 μl of a 0.5 M phosphate buffer (pH 7.0) containing 14 mM EDTA.2Na and a 0.3% neomycin sulfate, 50 μl of a 20 mM L-phenylalanyl-L-alanyl-L-proline as an angiotensin converting enzyme inhibitor and 100 μl of dimethyl sulfoxide solution containing an amino acid derivative of the present invention was added to 500 μl of human high renin plasma. Two hundred μl of the mixture was placed on an ice bath, at 4° C., and remaining mixture (800 μl ) was incubated for 60 minutes at 37° C. on a water bath. Two hundred μl of the incubated remaining mixture was chilled immediately on an ice bath, and the amount (A) of angiotensin I produced was determined by radioimmunoassay using renin riabead kit (DAINABOT).
# The amount (B) of angiotensin I in the mixture placed on an ice bath at 4° C. was also determined by radioimmunoassay.
# As a control, the same procedure as above was carried out by using 100 μl of dimethyl sulfoxide alone in place of 100 μl of dimethyl sulfoxide solution containing an amino acid compound of the present invention.
# The net amount was estimated as the difference between A and B.
# The inhibitory effect was calculated by the following equation. [formula]
# plasma renin = assay: Renin inhibitory effect in plasma on common marmoset (high renin state, oral); type: in vivo; conditions: oral 30 mg/kg
# Method: Renin inhibitory effect in plasma on common marmoset
# The experiment was carried out by using common marmoset as described in K. G. Hofbauer et al., Clinical and Experimental hypertension, Vol. A5, Nos. 7 & 8 (1983), pages 1237-1247.
# Furosemide was administered orally three times to common marmoset having a lower salt diet at 15 mg per Kilogram per day every other day to create a high renin state. The experiment was carried out on the third day after the last furosemide dose.
# Conscious female and male marmosets weighing 335 to 375 g were placed into small restraining chair, and by using a catheter into the femoral artery, blood collecting was carried out at intervals of 20, 40, 60, 120, 180 and 300 minutes.
# Collected blood samples were centrifuged at 1200 g for 15 minutes at 4° C. Two hundred μl of the plasma was taken up and incubated for 60 minutes at 37° C., and the plasma renin activity was measured by radioimmunoassay using renin riabead kit (DAINABOT).
# Compound A of this invention was dissolved in dilute hydrochloric acid, and administered orally at single dose of 30 mg/kg using catheter.
# [3] = Hypotensive effect in marmoset (high renin state, oral); type: in vivo, common marmoset; conditions: conscious male marmoset, oral 30 mg/kg, tail cuff, Control 89.3
# Method: Hypotensive effect in marmoset
# The experiment was carried out by using common marmoset as described in K. G. Hofbauer et al., Clinical and Experimental Hypertension, Vol. A5, Nos. 7 & 8 (1983), pages 1237-1247.
# Furosemide was administered orally three times to common marmoset at 15 mg per kilogram per day every other day to create a high renin state. Blood pressure of conscious marmoset was measured on the third day after the last furosemide dose.
# A conscious male marmoset weighing 460 g was placed into small restraining chair. Blood pressure was measured on the tail cuff method using pretismograph. Compound C was dissolved in dilute hydrochloric acid, and administered orally at 30 mg/kg by using a catheter.
SMILES,pIC50 (renin [1]),pIC50 (renin [2]),further results
"O=C(N[C@@H](Cc1c[nH]cn1)C(=O)N[C@@H](CC1CCCCC1)C(O)C(=O)OC(CF)CF)C(CC(=O)N1CCOCC1)Cc1cccc2ccccc12 (mixture of isomers) [Compound G, (2RS, 3S)-3-{N-[2-(1-Naphthylmethyl)-3-(morpholinocarbonyl)propionyl]-L-histidyl}amino-4-cyclohexyl-2-hydroxybutyric acid 1,3-difluoro-2-propyl ester]",8.54,8.39,
"O=C(N[C@@H](Cc1c[nH]cn1)C(=O)N[C@@H](CC1CCCCC1)C(O)C(=O)OC1CCCCC1)C(CC(=O)N1CCOCC1)Cc1cccc2ccccc12 (mixture of isomers) [Compound E, (2RS, 3S)-3-{N-[2-(1-Naphthylmethyl)-3-(morpholinocarbonyl)propionyl]-L-histidyl}amino-4-cyclohexyl-2-hydroxybutyric acid cyclohexyl ester]",8.18,7.52,
"O=C(N[C@@H](Cc1c[nH]cn1)C(=O)N[C@@H](CC1CCCCC1)C(O)C(=O)OC1CCCC1)C(CC(=O)N1CCOCC1)Cc1cccc2ccccc12 (mixture of isomers) [Compound C, (2RS, 3S)-3-{N-[2-(1-Naphthylmethyl)-3-(morpholinocarbonyl)propionyl]-L-histidyl)amino-4-cyclohexyl-2-hydroxybutyric acid cyclopentyl ester]",8.60,8.17,Blood pressure ([3]; 0.5 hours after administration): 78.0 mmHg; Blood pressure ([3]; 1 hour after administration): 73.3 mmHg; Blood pressure ([3]; 2 hours after administration): 66.0 mmHg; Blood pressure ([3]; 3 hours after administration): 71.0 mmHg; Blood pressure ([3]; 5 hours after administration): 71.8 mmHg; Blood pressure ([3]; 7 hours after administration): 71.7 mmHg

# Further molecules by rising pIC50 (renin [1]), results first:
pIC50 (renin [1]),pIC50 (renin [2]),SMILES,further results
6.43,6.89,"O=C(N[C@@H](Cc1c[nH]cn1)C(=O)N[C@@H](CC1CCCCC1)C(O)C(=O)N1CCOCC1)C(CC(=O)N1CCOCC1)Cc1cccc2ccccc12 (mixture of isomers) [Compound F, 4-[(2RS, 3S)-3-{N-[2-(1-Naphthylmethyl)-3-(morpholinocarbonyl)propionyl]-L-histidyl}amino-4-cyclohexyl-2-hydroxybutyryl]morpholine]",
6.54,6.59,"CC(C)CNC(=O)C(O)[C@H](CC1CCCCC1)NC(=O)[C@H](Cc1c[nH]cn1)NC(=O)C(CC(=O)N1CCOCC1)Cc1cccc2ccccc12 (mixture of isomers) [Compound B, (2RS, 3S)-3-{N-[2-(1-Naphthylmethyl)-3-(morpholinocarbonyl)propionyl]-L-histidyl}amino-4-cyclohexyl-2-hydroxy-N-isobutylbutyramide]",
8.19,8.00,"CC(C)OC(=O)C(O)[C@H](CC1CCCCC1)NC(=O)[C@H](Cc1c[nH]cn1)NC(=O)C(CC(=O)N1CCOCC1)Cc1cccc2ccccc12 (mixture of isomers) [Compound A, (2RS, 3S)-3-{N-[2-(1-Naphthylmethyl)-3-(morpholinocarbonyl)propionyl]-L-histidyl)amino-4-cyclohexyl-2-hydroxybutyric acid isopropyl ester]","Inhibition percent of plasma renin activity (plasma renin; 20 minutes after administration, 3 animals): 68.2%; Inhibition percent of plasma renin activity (plasma renin; 40 minutes after administration, 3 animals): 88.1%; Inhibition percent of plasma renin activity (plasma renin; 60 minutes after administration, 3 animals): 87.1%; Inhibition percent of plasma renin activity (plasma renin; 120 minutes after administration, 3 animals): 88.8%; Inhibition percent of plasma renin activity (plasma renin; 180 minutes after administration, 3 animals): 79.6%; Inhibition percent of plasma renin activity (plasma renin; 300 minutes after administration, 2 animals): 53.4%"
8.62,8.33,"CC(C)OC(=O)[C@H](O)[C@H](CC1CCCCC1)NC(=O)[C@H](Cc1c[nH]cn1)NC(=O)C(CC(=O)N1CCOCC1)Cc1cccc2ccccc12 (stereo partly drawn) [Compound D, (2R, 3S)-3-{N-[2-(1-Naphthylmethyl)-3-(morpholinocarbonyl)propionyl]-L-histidyl}amino-4-cyclohexyl-2-hydroxybutyric acid isopropyl ester]",
